Results on 39 compounds are retold here after patent US8865756B2, “Inhibitors of HCV NS5A” (Presidio Pharmaceuticals, Inc., priority 2008, dated 2014).

For this assay, the system named is HCV 1b_Huh-Luc/Neo-ET cell line persistently expressing a bicistronic genotype 1b replicon in Huh 7 cells. The assay can be described thus: HCV replicon assay (luciferase readout). Format: cell-based. The note with it: Hepatitis C virus, Huh-7, 72 h, read-out: Inhibition of HCV genotype 1b. Put shortly: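 EC50, determined repeatedly, comes from a four-parameter logistic fit of luciferase signal as percent of untreated control. Readout follows 72 h compound exposure, in triplicate, of the HCV 1b_Huh-Luc/Neo-ET replicon line.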
On the technique in general: A replicon is a self-replicating genome or part of one, used to study replication in cells.

Structures are written as SMILES.

In the case of `COC(=O)N[C@@H](C(=O)N1CCC[C@H]1c1ncc(-c2ccc(C#Cc3ccc(-c4cnc([C@@H]5CCCN5C(=O)[C@H](NC(=O)N5CCC[C@@H]5C)c5ccccc5)[nH]4)cc3)cc2)[nH]1)c1ccccc1` [Compound 261], the EC50 is below 1 nM.
Next, `COC(=O)N[C@@H](C(=O)N1CCC[C@H]1c1ncc(-c2ccc(C#Cc3ccc(-c4cnc([C@@H]5CCCN5C(=O)[C@H](NC(=O)N5CCC[C@H](O)C5)c5ccccc5)[nH]4)cc3)cc2)[nH]1)c1ccccc1` [Compound 263]: below 1 nM.
In the case of `COC(=O)N[C@H](C(=O)N1CCC[C@H]1c1ncc(C#Cc2ccc(-c3ccc4nc([C@@H]5CCCN5C(=O)[C@@H](NC(=O)OC)C(C)C)[nH]c4c3)cc2)[nH]1)C(C)C` [Compound 1084] it was below 1 nM; in that of `COC(=O)N[C@H](C(=O)N1CCC[C@H]1c1ncc(-c2ccc(C#Cc3ccc(-c4cnc([C@@H]5CCCN5C(=O)[C@@H](c5ccccc5)N5CCN(C)CC5)[nH]4)cc3)cc2)[nH]1)C(C)C` [Compound 957], below 1 nM.
For `COC(=O)N[C@@H](C(=O)N1CCC[C@H]1c1ncc(C#Cc2ccc(-c3cnc([C@@H]4CCCN4C(=O)[C@H](NC(=O)OC)c4ccccc4)[nH]3)cc2)[nH]1)c1ccccc1` [Compound 110], the EC50 was below 1 nM.
Next, `COC(=O)N[C@H](C(=O)N1CCC[C@H]1c1ncc(-c2ccc(C#Cc3ccc(-c4cnc([C@@H]5CCCN5C(=O)[C@@H](NC(=O)OC)C(C)(C)O)[nH]4)cc3)cc2)[nH]1)C(C)C` [Compound 994]: below 1 nM; `O=C(N[C@@H](C(=O)N1CCC[C@H]1c1ncc(C#Cc2ccc(-c3ccc(-c4cnc([C@@H]5CCCN5C(=O)[C@H](NC(=O)N5CC[C@H](O)C5)c5ccccc5)[nH]4)cc3)cc2)[nH]1)c1ccccc1)N1CC[C@H](O)C1` [Compound 762]: below 1 nM; `C[C@@H](c1ncc(-c2ccc(C#Cc3ccc(-c4cnc([C@@H]5CCCN5C(=O)[C@H](NC(=O)C5CC5)c5ccccc5)[nH]4)cc3)cc2)[nH]1)N(C)C(=O)[C@H](NC(=O)C1CC1)c1ccccc1` [Compound 278]: below 1 nM.
Next, `CC(C)[C@H](NC(=O)N1CC[C@H](O)C1)C(=O)N1CCC[C@H]1c1ncc(-c2ccc(C#Cc3ccc(-c4cnc([C@@H]5CCCN5C(=O)[C@@H](NC(=O)N5CC[C@H](O)C5)C(C)C)[nH]4)cc3)cc2)[nH]1` [Compound 988]: 10 to 999 nM; `COC(=O)N[C@@H](C(=O)N[C@H](c1ncc(-c2ccc(C#Cc3ccc(-c4cnc([C@@H]5CCCN5C(=O)[C@H](NC(=O)OC)c5ccccc5)[nH]4)cc3)cc2)[nH]1)C(C)C)c1ccccc1` [Compound 282]: below 1 nM; `CC(C)[C@H](NC(=O)N1CCNCC1)C(=O)N1CCC[C@H]1c1ncc(-c2ccc(C#Cc3ccc(-c4cnc([C@@H]5CCCN5C(=O)[C@@H](NC(=O)N5CCNCC5)C(C)C)[nH]4)cc3)cc2)[nH]1` [Compound 967]: 10 to 999 nM.
Next, `COC(=O)N[C@@H](C(=O)N1CCC[C@H]1c1ncc(C#Cc2ccc(C#Cc3cnc([C@@H]4CCCN4C(=O)[C@H](NC(=O)OC)c4ccccc4)[nH]3)cc2)[nH]1)c1ccccc1` [Compound 304]: below 1 nM.
Turning to `COC(=O)N[C@H](C(=O)N1CCC[C@H]1c1ncc(-c2ccc(C#Cc3ccc4nc([C@@H]5CCCN5C(=O)[C@H](NC(=O)OC)C(C)C)[nH]c4c3)cc2)[nH]1)C(C)C` [Compound 1054], the EC50 was below 1 nM.
As for `COC(=O)N[C@@H](C(=O)N1CCC[C@H]1c1ncc(-c2ccc(C#Cc3ccc(-c4cnc([C@@H]5CCCN5C(=O)Cc5cccnc5)[nH]4)cc3)cc2)[nH]1)c1ccccc1` [Compound 181], the EC50 was below 1 nM.
In the case of `COC(=O)N[C@@H](C(=O)N1CCC[C@H]1c1ncc(-c2ccc(C#Cc3ccc(C(=O)NC[C@@H]4CCCN4C(=O)[C@@H](c4ccccc4)N(C)C)cc3)cc2)[nH]1)c1ccccc1` [Compound 234], the EC50 is below 1 nM.
Take `CC(C)(C)OC(=O)N[C@@H](C(=O)N1CCC[C@H]1C(=O)Nc1ccc(C#Cc2cnc([C@@H]3CCCN3C(=O)[C@H](NC(=O)OC(C)(C)C)c3ccccc3)[nH]2)cc1)c1ccccc1` [Compound 115]: the EC50 was below 1 nM.
Next, `C[C@H](NC(=O)[C@@H]1CCCN1C(=O)[C@H](NC(=O)OC(C)(C)C)c1ccccc1)c1ccc(C#Cc2cnc([C@@H]3CCCN3C(=O)[C@H](NC(=O)OC(C)(C)C)c3ccccc3)[nH]2)cc1` [Compound 130]: 10 to 999 nM; `O=C(N[C@@H](C(=O)N1CCC[C@H]1C(=O)Nc1ccc(C#Cc2ccc(-c3cnc([C@@H]4CCCN4C(=O)[C@H](NC(=O)C4CC4)c4ccccc4)[nH]3)cc2)cc1)c1ccccc1)C1CC1` [Compound 166]: below 1 nM; `CC(C)[C@@H](NC(=O)OC(C)(C)C)C(=O)N1CCC[C@H]1c1ncc(-c2ccc(C#Cc3ccc(-c4cnc([C@@H]5CCCN5C(=O)[C@H](NC(=O)OC(C)(C)C)C(C)C)[nH]4)cc3)cc2)[nH]1` [Compound 152]: 10 to 999 nM.
Next, `COC(=O)N[C@H](C(=O)N1CCC[C@H]1c1ncc(-c2ccc(C#Cc3ccc(-c4cnc([C@@H]5CCCN5C(=O)[C@@H](Nc5cccnc5)C(C)C)[nH]4)cc3)cc2)[nH]1)C(C)C` [Compound 995]: below 1 nM.
Turning to `COC[C@H](NC(=O)OC)C(=O)N1CCC[C@H]1c1ncc(-c2ccc(C#Cc3ccc(-c4cnc([C@@H]5CCCN5C(=O)[C@H](COC)NC(=O)OC)[nH]4)cc3)cc2)[nH]1` [Compound 976], the EC50 was below 1 nM.
Next, `O=C(N[C@@H](C(=O)N1CCC[C@H]1C(=O)NCCc1ccc(C#Cc2cnc([C@@H]3CCCN3C(=O)[C@H](NC(=O)C3CC3)c3ccccc3)[nH]2)cc1)c1ccccc1)C1CC1` [Compound 125]: below 1 nM.
In the case of `COC[C@@H]1CCCN1C(=O)N[C@@H](C(=O)N1CCC[C@H]1c1ncc(-c2ccc(C#Cc3ccc(-c4cnc([C@@H]5CCCN5C(=O)[C@H](NC(=O)OC)c5ccccc5)[nH]4)cc3)cc2)[nH]1)c1ccccc1` [Compound 260], the EC50 was below 1 nM.
`COC(=O)N[C@H](C(=O)N1CCC[C@H]1c1ncc(C#Cc2ccc(-c3cnc([C@@H]4CCCN4C(=O)[C@@H](NC(=O)OC)C(C)C)[nH]3)cc2)[nH]1)C(C)C` [Compound 134]: the EC50 is below 1 nM.
On to `CC(C)[C@H](NC(=O)N1CCC(O)CC1)C(=O)N1CCC[C@H]1c1ncc(-c2ccc(C#Cc3ccc(-c4cnc([C@@H]5CCCN5C(=O)[C@@H](NC(=O)N5CCC(O)CC5)C(C)C)[nH]4)cc3)cc2)[nH]1` [Compound 286], for which the EC50 was above 1000 nM.
For `CC(C)[C@@H](C(=O)N1CCC[C@H]1c1ncc(-c2ccc(C#Cc3ccc(-c4cnc([C@@H]5CCCN5C(=O)[C@H](C(C)C)N5CCOC5=O)[nH]4)cc3)cc2)[nH]1)N1CCOC1=O` [Compound 1006], the EC50 fell in the range of 10 to 999 nM.
`COC(=O)N[C@@H](CC(=O)N1CCC[C@H]1c1ncc(-c2ccc(C#Cc3ccc4nc([C@@H]5CCCN5C(=O)C[C@H](NC(=O)OC)C(C)C)[nH]c4c3)cc2)[nH]1)C(C)C` [Compound 1064]: the EC50 was in the range of 10 to 999 nM.
As for `O=C(N[C@@H](C(=O)N1CCC[C@H]1c1ncc(-c2ccc(C#Cc3ccc(-c4cnc([C@@H]5CCCN5C(=O)[C@@H](c5ccccc5)N5CCCC5)[nH]4)cc3)cc2)[nH]1)c1ccccc1)C1CC1` [Compound 217], the EC50 was below 1 nM.
In the case of `CC(C)(C)OC(=O)N[C@@H](C(=O)N1CCC[C@H]1c1ncc(C#Cc2ccc(-c3ccc(-c4cnc([C@@H]5CCCN5C(=O)[C@H](NC(=O)OC(C)(C)C)c5ccccc5)[nH]4)cc3)cc2)[nH]1)c1ccccc1` [Compound 757], the EC50 is below 1 nM.
For the compound `COC(=O)N[C@@H](C(=O)N1CCC[C@H]1c1ncc(-c2ccc(C#Cc3ccc(-c4cnc([C@@H]5CCCN5C(=O)[C@H](NC(=O)N5CCN(C)CC5)c5ccccc5)[nH]4)cc3)cc2)[nH]1)c1ccccc1` [Compound 240], the EC50 is below 1 nM.
With `COC(=O)N[C@@H](C(=O)N1CCC[C@H]1c1ncc(-c2ccc(C#Cc3ccc(C(=O)NC[C@@H]4CCCN4C(=O)[C@H](NC(=O)N4CCN(C)CC4)c4ccccc4)cc3)cc2)[nH]1)c1ccccc1` [Compound 236], the EC50 is below 1 nM.
For `COC(=O)N[C@H](C(=O)N1CSC[C@H]1c1ncc(-c2ccc(C#Cc3ccc4nc([C@@H]5CCCN5C(=O)[C@@H](NC(=O)OC)C(C)C)[nH]c4c3)cc2)[nH]1)C(C)C` [Compound 1026], the EC50 is below 1 nM.
In the case of `COC(=O)N[C@H](C(=O)N1CCC[C@H]1c1ncc(-c2ccc(C#Cc3ccc(-c4cnc([C@@H]5CCCN5C(=O)[C@@H](c5ccccc5)N(C)C)[nH]4)cc3)cc2)[nH]1)C(C)C` [Compound 955] it was below 1 nM; in that of `COC(=O)N[C@@H](C(=O)N1CCC[C@H]1c1ncc(-c2ccc(C#Cc3ccc(-c4cnc([C@@H]5CCCN5C(=O)C5CCCN5C)[nH]4)cc3)cc2)[nH]1)c1ccccc1` (stereo partly drawn) [Compound 202], below 1 nM; in that of `CC(C)[C@H](NC(=O)N1CCOCC1)C(=O)N1CCC[C@H]1c1ncc(-c2ccc(C#Cc3ccc(-c4cnc([C@@H]5CCCN5C(=O)[C@@H](NC(=O)N5CCOCC5)C(C)C)[nH]4)cc3)cc2)[nH]1` [Compound 285], above 1000 nM.
Next, `COC(=O)N[C@H](C(=O)N1CCC[C@H]1c1nc2ccc3cc(C#Cc4ccc(-c5cnc([C@@H]6CCCN6C(=O)[C@@H](NC(=O)OC)C6CCOCC6)[nH]5)cc4F)ccc3c2[nH]1)C(C)C` [Compound 1099]: below 1 nM.
In the case of `COC(=O)N[C@@H](C(=O)N1CCC[C@H]1c1ncc(-c2ccc(C#Cc3ccc4nc([C@@H]5CCCN5C(=O)[C@H](NC(=O)OC)C(C)C)[nH]c4c3)cc2)[nH]1)C(C)C` [Compound 861] it was 10 to 999 nM; in that of `CC(C)[C@H](NC(=O)N1CCCC1)C(=O)N1CCC[C@H]1c1ncc(-c2ccc(C#Cc3ccc(-c4cnc([C@@H]5CCCN5C(=O)[C@@H](NC(=O)N5CCCC5)C(C)C)[nH]4)cc3)cc2)[nH]1` [Compound 288], above 1000 nM; in that of `COC(=O)N[C@H](C(=O)N[C@@H](C)c1ncc(-c2ccc(C#Cc3ccc(-c4cnc([C@H](C)NC(=O)[C@@H](NC(=O)OC)[C@@H](C)O)[nH]4)cc3)cc2)[nH]1)[C@@H](C)O` [Compound 969], below 1 nM.
